In patent publication US8084649B2, “Herbicides” (Syngenta Crop Protection, inc., priority 2007, dated 2011):

What was measured:
Format in all cases: in vivo
Setaria faberi (SETFA) [1] = experiment: Pre-emergence herbicidal activity, glasshouse pot test; details: Setaria faberi, 480 h, rate 500 g/ha, evaluated after 20 days, read-out: Pre-emergence activity, SETFA (100=total damage to plant; 0=no damage to plant)
Procedure: (§1) Monocotyledonous and dicotyledonous test plants were sown in sterilised standard soil in pots. After cultivation for one day (pre-emergence) or after 10 days cultivation (post-emergence) under controlled conditions in a glasshouse, the plants were sprayed with an aqueous spray solution derived from the formulation of the technical active ingredient in 0.6 ml acetone and 45 ml formulation solution containing 10.6% Emulsogen EL (Registry number 61791-12-6), 42.2% N-methylpyrrolidone, 42.2% dipropylene glycol monomethyl ether (Registry number 34590-94-8) and 0.2% X-77 (Registry number 11097-66-8). The test plants were then grown in a greenhouse under optimum conditions until, 14 or 15 days later for post-emergence and 20 days for pre-emergence, the test was evaluated (100=total damage to plant; 0=no damage to plant). Alopecurus myosuroides (ALOMY), Avena fatua (AVEFA), Lolium perenne (LOLPE), Setaria faberi (SETFA), Digitaria sanguinalis (DIGSA), Echinochloa crus-galli (ECHCG) Pre-Emergence Activity

Avena fatua (AVEFA) [2] = experiment: as above; details: Avena fatua, 480 h, rate 500 g/ha, evaluated after 20 days, read-out: Pre-emergence activity, AVEFA (100=total damage to plant; 0=no damage to plant)
Procedure: as §1

[3] = system: Alopecurus myosuroides (ALOMY); experiment: as above; details: Alopecurus myosuroides, 480 h, rate 500 g/ha, evaluated after 20 days, read-out: Pre-emergence activity, ALOMY (100=total damage to plant; 0=no damage to plant)
Procedure: as §1

[4] = system: Digitaria sanguinalis (DIGSA); experiment: as above; details: Digitaria sanguinalis, 480 h, rate 500 g/ha, evaluated after 20 days, read-out: Pre-emergence activity, DIGSA (100=total damage to plant; 0=no damage to plant)
Procedure: as §1

Lolium perenne (LOLPE) [5] = experiment: as above; details: Lolium perenne, 480 h, rate 500 g/ha, evaluated after 20 days, read-out: Pre-emergence activity, LOLPE (100=total damage to plant; 0=no damage to plant)
Procedure: as §1

[6] = system: Echinochloa crus-galli (ECHCG); experiment: as above; details: Echinochloa crus-galli, 480 h, rate 500 g/ha, evaluated after 20 days, read-out: Pre-emergence activity, ECHCG (100=total damage to plant; 0=no damage to plant)
Procedure: as §1

Setaria faberi (SETFA) [7] = experiment: Post-emergence herbicidal activity, glasshouse pot test; details: Setaria faberi, rate 125 g/ha, evaluated after 14 or 15 days, read-out: Post-emergence activity, SETFA (100=total damage to plant; 0=no damage to plant)
Procedure: as §1, with “Post-Emergence” for “Pre-Emergence”

Avena fatua (AVEFA) [8] = experiment: as above; details: Avena fatua, rate 125 g/ha, evaluated after 14 or 15 days, read-out: Post-emergence activity, AVEFA (100=total damage to plant; 0=no damage to plant)
Procedure: as §1, with “Post-Emergence” for “Pre-Emergence”

[9] = system: Alopecurus myosuroides (ALOMY); experiment: as above; details: Alopecurus myosuroides, rate 125 g/ha, evaluated after 14 or 15 days, read-out: Post-emergence activity, ALOMY (100=total damage to plant; 0=no damage to plant)
Procedure: as §1, with “Post-Emergence” for “Pre-Emergence”

[10] = system: Digitaria sanguinalis (DIGSA); experiment: as above; details: Digitaria sanguinalis, rate 125 g/ha, evaluated after 14 or 15 days, read-out: Post-emergence activity, DIGSA (100=total damage to plant; 0=no damage to plant)
Procedure: as §1, with “Post-Emergence” for “Pre-Emergence”

Lolium perenne (LOLPE) [11] = experiment: as above; details: Lolium perenne, rate 125 g/ha, evaluated after 14 or 15 days, read-out: Post-emergence activity, LOLPE (100=total damage to plant; 0=no damage to plant)
Procedure: as §1, with “Post-Emergence” for “Pre-Emergence”

[12] = system: Echinochloa crus-galli (ECHCG); experiment: as above; details: Echinochloa crus-galli, rate 125 g/ha, evaluated after 14 or 15 days, read-out: Post-emergence activity, ECHCG (100=total damage to plant; 0=no damage to plant)
Procedure: as §1, with “Post-Emergence” for “Pre-Emergence”

SMILES	pest or weed control at 500 g/ha (Setaria faberi (SETFA) [1]) [%]	pest or weed control at 500 g/ha (Avena fatua (AVEFA) [2]) [%]	pest or weed control at 500 g/ha [3] [%]	pest or weed control at 500 g/ha [4] [%]	pest or weed control at 500 g/ha (Lolium perenne (LOLPE) [5]) [%]	pest or weed control at 500 g/ha [6] [%]	pest or weed control at 125 g/ha (Setaria faberi (SETFA) [7]) [%]	pest or weed control at 125 g/ha (Avena fatua (AVEFA) [8]) [%]	pest or weed control at 125 g/ha [9] [%]	pest or weed control at 125 g/ha [10] [%]	pest or weed control at 125 g/ha (Lolium perenne (LOLPE) [11]) [%]	pest or weed control at 125 g/ha [12] [%]
CCc1cc(C)cc(CC)c1C1=C(OC(=O)CC2CCCC2)CC2(CCOCC2)CC1=O [Compound P11]	100	90	100	100	90	90	70	100	90	70	90	70
CCc1cc(C)cc(CC)c1C1=C(OC(=O)C2CCCCC2)CC2(CCOCC2)CC1=O [Compound P12]	100	100	100	100	100	100	90	90	80	90	100	100
CCc1cc(C)cc(CC)c1C1=C(OC(=O)C(C)CC)CC2(CCOCC2)CC1=O (stereo not drawn) [Compound P13]	100	100	100	100	100	100	90	100	90	100	90	100
CCc1cc(C)cc(CC)c1C1=C(OC(=O)C(CC)CC)CC2(CCOCC2)CC1=O [Compound P14]	100	100	100	100	100	90	60	80	80	70	80	60
CCOC(=O)OC1=C(c2c(CC)cc(C)cc2CC)C(=O)CC2(CCOCC2)C1 [Compound P16]	100	100	100	100	100	100	70	90	100	100	100	100
CCc1cc(C)cc(CC)c1C1=C(OC(=O)OCc2ccccc2)CC2(CCOCC2)CC1=O [Compound P17]	100	100	100	100	100	100	70	80	90	70	80	70
CCc1cc(C)cc(CC)c1C1=C(OC(=O)Oc2ccccc2)CC2(CCOCC2)CC1=O [Compound P18]	100	100	100	100	100	80	50	100	80	70	90	100
CCc1cc(C)cc(CC)c1C1=C(OC(=O)OCC(C)(C)C)CC2(CCOCC2)CC1=O [Compound P19]	100	100	100	100	100	100	70	90	90	70	90	100
CCc1cc(C)cc(CC)c1C1=C(OC(=O)OCC(C)C)CC2(CCOCC2)CC1=O [Compound P20]	100	100	100	100	100	100	70	100	90	70	90	100
C=CCOC(=O)OC1=C(c2c(CC)cc(C)cc2CC)C(=O)CC2(CCOCC2)C1 [Compound P21]	100	100	100	100	100	100	90	100	100	100	90	100
C#CCOC(=O)OC1=C(c2c(CC)cc(C)cc2CC)C(=O)CC2(CCOCC2)C1 [Compound P22]	100	100	100	100	100	100	90	100	90	100	90	90
CCc1cc(C)cc(CC)c1C1=C(OS(C)(=O)=O)CC2(CCOCC2)CC1=O [Compound P24]	90	80	80	70	80	50	0	0	0	0	0	0
